Consider 28 molecules from patent publication US9066922B2, “Pharmaceutical composition for the treatment or prevention of diseases involving obesity, diabetes, metabolic syndrome, neuro-degenerative diseases and mitochondria dysfunction diseases” (MD BIOALPHA CO., LTD., priority 2005, dated 2015).

Molecules are shown by their SMILES.

Series [1] has as its system Sprague-Dawley rats. The series is described as follows: Acute toxicity test, peritoneal administration. Format: in vivo. As to conditions: peritoneal, 50, 100 and 200 mg/kg, observed for 2 weeks, vs control group.
Series [2] deals with Sprague-Dawley rats. The series is described as follows: Acute toxicity test, oral administration. Format: in vivo. As to conditions: oral, 50, 100 and 200 mg/kg, observed for 2 weeks, vs control group.
The subject of the next series is AMPK. The series is described as follows: Determination of AMPK activation in C2C12 myoblast cells (SAMS peptide, [γ-32P]ATP). To be noted: differentiated C2C12 myoblast cells, 5 μg/ml, compared with control (DMSO 0.5% = 1). Format: cell-based. As to the method: Myoblast cells, C2C12, were cultured in DMEM containing 10% bovine calf serum. When a cell density reached a range of about 85% to 90%, the culture medium was replaced with a medium containing 1% bovine calf serum to induce differentiation of cells. The thus-differentiated myoblast cells were treated with samples synthesized in Examples 1 through 29 at a concentration of 5 μg/ml, and compared with a control group. Enzymatic activity of AMPK was determined as follows. Firstly, C2C12 cells were lysed to obtain protein extracts and then ammonium sulfate was added to a final concentration of 30%, thereby precipitating proteins. Protein precipitates were dissolved in a buffer (62.5 mM Hepes, pH 7.2, 62.5 mM NaCl, 62.5 mM NaF, 1.25 mM Na pyrophosphate, 1.25 mM EDTA, 1 mM DTT, 0.1 mM PMSF, and 200 μM AMP). Thereafter, 200 μM SAMS peptide (HMRSAMSGLHLVKRR: the underlined serine residue is a phosphorylation site, as an AMPK phosphorylation site of acetyl-CoA carboxylase) and [γ-32P]ATP were added thereto and reactants were reacted for 10 minutes at 30° C. This was followed by spotting of the resulting reaction solution on p81 phosphocellulose paper. The p81 paper was washed with a 3% phosphoric acid solution and radioactivity thereof was measured. For each reaction condition, reactions involving no SAMS peptide were also conducted and basic values were subtracted from the thus-observed values.

The test system of series [3] is C57BL/6JL Lep ob/Lep ob mice. The series is described as follows: Weight loss effects in obese mice (ob/ob): body weight. To be noted: 100 mg/kg for 26 days; for change in vivo at 100 mg/kg: Mus musculus, 624 h, read-out: Increase in BW. Format: in vivo. The source says:
(§1) 10-week-old C57BL/6JL Lep ob/Lep ob male mice having obesity characteristics and predisposition were purchased from Daehan Biolink Co., Ltd. (Chungchongbuk-do, Korea). Animals were raised in a breeding room maintained at a temperature of 23 C, 55% humidity, illumination of 300 to 500 lux, a 12-h light/dark (L/D) cycle, and ventilation of 10 to 18 times/hr. Animals were fed ad libitum pellets of Purina Rodent Laboratory Chow 5001 (purchased from Purina Mills Inc., St. Louis, Mo., USA) as a solid feed for experimental animals and tap water as drinking water. Mice were allowed to acclimate to new environment of the breeding room for two weeks and were then administered some pyrano-o-naphthoquinone and furano-o-naphthoquinone derivatives synthesized according to the present invention at doses of 100 mg/kg for 26 days. Observation was made on changes in body weight, blood glucose and dietary intake, with respect to a time course of administration. After administration was complete, Computed Tomography (CT) was performed to confirm changes in adipose tissue distribution of animals, changes in fat distribution of tissues in various organs, changes in sizes of adipocytes, and changes in glucose, lipid and enzyme levels in blood and liver.

The subject of series [4] is C57BL/6JL Lep ob/Lep ob mice. The series is described as follows: Blood lipid, glucose and enzyme levels in obese mice (ob/ob). Type of series: in vivo. The arrangement: unit not given here. To be noted: 100 mg/kg for 26 days.
Excerpt: as §1

For `C[C@H]1OC2=C(C(=O)C(=O)c3ccccc32)[C@@H]1C` [Compound 16], the visually observable symptoms result in the series with Sprague-Dawley rats [1] and in the series on Sprague-Dawley rats [2] was “no visually observable symptoms with exception of weight loss” each time. Further, the AMPK fold in the series on AMPK is listed as 2.5 fold.

For the molecule `CC(C)=C/C(C)=C/C1(C)CCC2=C(O1)c1ccccc1C(=O)C2=O` (stereo not shown) [Compound 14], the visually observable symptoms result in the series on Sprague-Dawley rats [1] is listed as “no visually observable symptoms with exception of weight loss”. In addition, in series [3], the “Final BW” value is given as 61.3 g and the change in vivo at 100 mg/kg is -4.7%. In addition, the visually observable symptoms result in the series with Sprague-Dawley rats [2] was “no visually observable symptoms with exception of weight loss”. The AMPK fold in the series with AMPK turned out to be 1.5 fold. In series [4], this molecule came in with a Cholesterol of 160, a GOT of 95, a GPT of 87 and a Glucose of 193. The Triglyceride in series [4] came out at 216.

As to `CC1(C)CCC2=C(O1)c1cc(Cl)ccc1C(=O)C2=O` [Compound 21], in series [3], the “Final BW” value stood at 41.1 g and the change in vivo at 100 mg/kg is -28.3%. The AMPK fold in the series with AMPK is listed as 2.2 fold. In series [4], this molecule returned a Cholesterol of 127, a GOT of 46, a GPT of 39 and a Glucose of 127. In series [4], this molecule returned a Triglyceride of 138.

Turning to `CC1(c2ccccc2)CCC2=C(O1)c1ccccc1C(=O)C2=O` (stereo not shown) [Compound 26], the visually observable symptoms entry in the series on Sprague-Dawley rats [1] is “no visually observable symptoms with exception of weight loss”. In series [3], the “Final BW” value is reported as 42.3 g and the change in vivo at 100 mg/kg was -25.5%. In addition, the visually observable symptoms result in the series on Sprague-Dawley rats [2] is on record as “no visually observable symptoms with exception of weight loss”. The AMPK fold with AMPK is recorded as 2.2 fold. In series [4], this molecule displayed a Cholesterol of 128, a GOT of 40, a GPT of 33 and a Glucose of 131. Also, the Triglyceride in series [4] is given as 137.

As to `CC1C2=C(OC1(C)C)c1ccccc1C(=O)C2=O` (stereo not shown) [Compound 3], the visually observable symptoms entry with Sprague-Dawley rats [1] is listed as “no visually observable symptoms with exception of weight loss”. Besides, in series [3], the “Final BW” value was found to be 39.7 g and the change in vivo at 100 mg/kg was -27.9%. Also, the visually observable symptoms entry in the series on Sprague-Dawley rats [2] is reported as “no visually observable symptoms with exception of weight loss”. Moreover, the AMPK fold with AMPK worked out at 3.2 fold. Besides, in series [4], the Cholesterol came to 128, the GOT is given as 36, the GPT came to 32 and the Glucose came out at 122. This molecule yielded a Triglyceride in series [4] of 129.

Turning to `CCC1(C)CCC2=C(O1)c1ccccc1C(=O)C2=O` (stereo not shown) [Compound 24], the visually observable symptoms entry in the series with Sprague-Dawley rats [1] and in the series on Sprague-Dawley rats [2] was “no visually observable symptoms with exception of weight loss” each time. Moreover, the AMPK fold in the series on AMPK worked out at 2.1 fold.

On to `Cc1coc2c1C(=O)C(=O)c1ccccc1-2` [Compound 30], for which the AMPK fold with AMPK was 1.2 fold.

`O=C1C(=O)c2ccccc2C2=C1CCC(c1ccccc1)O2` (stereo not shown) [Compound 7] gave an AMPK fold in the series with AMPK of 2.2 fold.

On to `Cc1ccc2c(c1)C1=C(CCC(C)(C)O1)C(=O)C2=O` [Compound 22], for which, in series [3], the “Final BW” value amounted to 48.7 g and the change in vivo at 100 mg/kg is -16.5%. In addition, in the series with AMPK, the AMPK fold is 1.9 fold. In series [4], the Cholesterol is listed as 132, the GOT amounted to 57, the GPT is on record as 49 and the Glucose was 142. Moreover, the Triglyceride in series [4] is reported as 168.

In the series on AMPK, `CCC1CC2=C(O1)c1ccccc1C(=O)C2=O` (stereo not shown) [Compound 19] returned an AMPK fold of 2.1 fold.

Consider `C=CC1(C)CCC2=C(O1)c1ccccc1C(=O)C2=O` (stereo not shown) [Compound 12], for which the visually observable symptoms entry in the series on Sprague-Dawley rats [1] and in the series with Sprague-Dawley rats [2] was “no visually observable symptoms with exception of weight loss” in each case. Also, in the series with AMPK, the AMPK fold was 2.1 fold.

On to `C[C@@H]1C2=C(O[C@@H]1C)c1ccccc1C(=O)C2=O` [Compound 17], for which the visually observable symptoms entry in the series on Sprague-Dawley rats [1] and in the series on Sprague-Dawley rats [2] was “no visually observable symptoms with exception of weight loss” in each case. The molecule further registered an AMPK fold in the series on AMPK of 2.2 fold.

`CC1(C)CC2=C(O1)c1ccccc1C(=O)C2=O` [Compound 4]: in the series on Sprague-Dawley rats [1], the visually observable symptoms entry is “no visually observable symptoms with exception of weight loss”. Also, in series [3], the “Final BW” value is 40.0 g and the change in vivo at 100 mg/kg is -27.8%. Moreover, in the series on Sprague-Dawley rats [2], the visually observable symptoms result is given as “no visually observable symptoms with exception of weight loss”. Also, the AMPK fold with AMPK came to 2.2 fold. In series [4], the Cholesterol was 130, the GOT came to 48, the GPT was 44 and the Glucose worked out at 134. In series [4], this molecule came in with a Triglyceride of 148.

The molecule `Cc1ccc2c(c1)-c1occ(C)c1C(=O)C2=O` [Compound 32] displayed an AMPK fold in the series on AMPK of 1.3 fold.

In the series with AMPK, `CC1CCC2=C(O1)c1ccccc1C(=O)C2=O` (stereo not shown) [Compound 18] had an AMPK fold of 2.3 fold.

Turning to `O=C1C(=O)c2ccccc2C2=C1CCO2` [Compound 6], the AMPK fold in the series on AMPK is listed as 2.2 fold.

`CCC1(CC)CCC2=C(O1)c1ccccc1C(=O)C2=O` [Compound 25]: the visually observable symptoms entry with Sprague-Dawley rats [1] and in the series on Sprague-Dawley rats [2] was “no visually observable symptoms with exception of weight loss” throughout. Besides, in the series with AMPK, the AMPK fold is reported as 1.8 fold.

In the series with AMPK, `C=C1OC2=C(C(=O)C(=O)c3ccccc32)C1(C)C` [Compound 9] returned an AMPK fold of 2.6 fold.

`CC1(C)C=CC2=C(O1)c1ccccc1C(=O)C2=O` [Compound 11]: the AMPK fold with AMPK is given as 1.3 fold.

Molecule `COC1(C)OC2=C(C(=O)C(=O)c3ccccc32)C1(C)C` (stereo not shown) [Compound 10] had an AMPK fold in the series on AMPK of 1.6 fold.

As for `CC1OC2=C(C(=O)C(=O)c3ccccc32)C1c1ccccc1` (stereo not shown) [Compound 8], in the series on AMPK, the AMPK fold is 1.9 fold.

With `Cc1ccc2c(c1)C(=O)C(=O)c1c(C)coc1-2` [Compound 31], in the series with AMPK, the AMPK fold is reported as 1.2 fold.

`CC(C)=CC1(C)CCC2=C(O1)c1ccccc1C(=O)C2=O` (stereo not shown) [Compound 13]: the visually observable symptoms entry in the series with Sprague-Dawley rats [1] and in the series with Sprague-Dawley rats [2] was “no visually observable symptoms with exception of weight loss” each time. The same molecule returned an AMPK fold in the series with AMPK of 2.3 fold.

The molecule `O=C1C(=O)c2ccccc2C2=C1CCC1(CCCCC1)O2` [Compound 27] gave an AMPK fold in the series with AMPK of 1.7 fold.

On to `CC1(C)CCCC2(C)OC3=C(CC12)C(=O)C(=O)c1ccccc13` (stereo not shown) [Compound 20], for which the AMPK fold in the series with AMPK stood at 2.3 fold.

For the molecule `Cc1cc2c(o1)-c1ccccc1C(=O)C2=O` [Compound 29], in the series on AMPK, the AMPK fold was found to be 1.3 fold.

For `O=C1C(=O)c2ccccc2C2=C1CCC1(CCCC1)O2` [Compound 28], the AMPK fold in the series on AMPK was 1.7 fold.

Consider `CC1CC2=C(O1)c1ccccc1C(=O)C2=O` (stereo not shown) [Compound 5], for which, in series [3], the “Final BW” value was 36.1 g and the change in vivo at 100 mg/kg is -39.5%. Besides, the AMPK fold in the series with AMPK came out at 1.3 fold. Besides, in series [4], the Cholesterol was 117, the GOT was 38, the GPT is 29 and the Glucose is on record as 112. Moreover, in series [4], the Triglyceride came to 137.
